Measured values published in publication PMC2787699 (Biochemistry, 2009).

Biological target: T1, TalrD/GalrD (Salmonella enterica, UniProt Q8ZL58)
T1 sequence (Q8ZL58 1-398): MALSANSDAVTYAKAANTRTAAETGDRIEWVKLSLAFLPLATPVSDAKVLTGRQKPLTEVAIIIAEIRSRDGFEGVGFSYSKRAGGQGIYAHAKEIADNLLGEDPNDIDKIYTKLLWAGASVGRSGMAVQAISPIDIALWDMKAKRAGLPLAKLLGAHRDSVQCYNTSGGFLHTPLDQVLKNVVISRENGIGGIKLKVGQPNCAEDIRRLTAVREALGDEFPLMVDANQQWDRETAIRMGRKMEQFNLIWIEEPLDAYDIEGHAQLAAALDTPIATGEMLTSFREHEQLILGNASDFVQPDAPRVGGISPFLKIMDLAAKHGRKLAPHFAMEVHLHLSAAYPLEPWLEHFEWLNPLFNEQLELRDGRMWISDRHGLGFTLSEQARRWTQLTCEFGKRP
Test: polarimetry at […] nm, product formation
Format: biochemical
Conditions: 10 mM galactarate, 50 mM Hepes pH 8.0, 5 mM MgCl2, room temperature

In the case of `O=C(O)[C@@H](O)[C@H](O)[C@H](O)[C@@H](O)C(=O)O` [galactarate], the “polarimetry at 589 nm, product formation” value is reported as “TalrD/GalrD produces a product with a positive rotation”.
